Drawing on patent US11149019B2, “Phenylpyridine derivative and pharmaceutical composition comprising the same” (Daewoong Pharmaceutical Co., Ltd., priority 2017, dated 2021), this text covers IC50 for 21 compounds.

In general, IC50 refers to the concentration at which inhibition is half-maximal.

The target of one test is T1, ITK (Homo sapiens, UniProt Q08881).
T1 construct: purchased Promega Corporation
T1 sequence (Q08881 1-620): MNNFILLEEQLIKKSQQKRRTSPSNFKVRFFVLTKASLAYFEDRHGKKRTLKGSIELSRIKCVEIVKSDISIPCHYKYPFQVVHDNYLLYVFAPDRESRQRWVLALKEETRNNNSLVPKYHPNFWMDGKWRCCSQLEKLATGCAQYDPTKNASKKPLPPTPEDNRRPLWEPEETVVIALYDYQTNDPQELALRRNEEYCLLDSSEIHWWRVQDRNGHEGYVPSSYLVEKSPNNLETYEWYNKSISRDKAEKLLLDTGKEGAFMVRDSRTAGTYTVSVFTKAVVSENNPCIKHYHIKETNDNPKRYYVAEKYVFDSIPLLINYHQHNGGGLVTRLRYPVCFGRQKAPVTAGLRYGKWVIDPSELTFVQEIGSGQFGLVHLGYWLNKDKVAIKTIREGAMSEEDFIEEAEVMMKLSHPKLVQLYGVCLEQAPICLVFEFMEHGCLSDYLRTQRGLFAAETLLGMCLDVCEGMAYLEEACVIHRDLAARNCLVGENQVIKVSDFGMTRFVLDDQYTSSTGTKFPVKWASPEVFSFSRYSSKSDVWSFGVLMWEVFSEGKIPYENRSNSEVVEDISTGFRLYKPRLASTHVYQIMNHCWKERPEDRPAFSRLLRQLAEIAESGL
The test can be described thus: ADP-Glo + ITK Kinase enzyme system kit, inhibitory activity against ITK. Type of test: biochemical. The note with it: ITK enzyme 0.4 ng/ul, ATP final concentration of 25 ul, 30° C. for 1 hour, luminescence, duplicate. How it is done: (§1) Inhibitory activities against BTK and ITK were measured for the compounds prepared in the above Examples as follows.
The inhibitory activity against ITK was evaluated using ‘ADP-Glo™+ITK Kinase enzyme system’ kit (Promega Corporation). In a white 96-well plate, 10 ul of ITK enzyme prepared so as to have a final concentration of 0.4 ng/ul was mixed with 5 ul of compounds having a final concentration of 1 uM in the case of evaluating a single concentration of compound and a concentration of 1000, 300, 100, 30, 10, 3, 1, 0.3, 0.1 and 0.03 nM in the case of IC50 evaluation, and then reacted at room temperature for 15 minutes. To the plate on which reactions were completed, 5 ul of substrate and 5 ul of ATP prepared so as to have a final concentration of […] added and then allowed to react at 30° C. for 1 hour. All wells of the plate were treated with 25 ul of ADP-Glo™ reagent and then allowed to react at 30° C. for 40 minutes. After that, all wells were treated with 50 ul of kinase detection buffer, and then allowed to react at 30° C. for 30 minutes under light shielding conditions. For the plate on which all reactions were completed, luminescence was measured and the results were calculated. Evaluation was carried out in duplicate, and negative control and positive control were calculated depending on whether or not the enzyme was added without treatment of the compound. The IC50 was calculated based on the calculated values.
In general terms: ADP-Glo turns the ADP formed in a reaction into a luminescent signal.

A further test addresses T2, BTK (Homo sapiens, UniProt Q06187).
T2 construct: purchased Promega Corporation
In words: ADP-Glo + BTK Kinase enzyme system kit, inhibitory activity against BTK. It is filed as biochemical. The note with it: BTK enzyme 1 ng/ul, ATP 10 μM, 30° C. for 1 hour, luminescence, duplicate. As to the method: as §1
The inhibitory activities against BTK were evaluated using ‘ADP-Glo™+BTK Kinase enzyme system’ kit (Promega Corporation). In a white 96-well plate, 10 ul of BTK enzyme prepared so as to have a final concentration of 1 ng/ul was mixed with 5 μl of compounds having a final concentration of […] the case of evaluating a single concentration of compound and a concentration of 1000, 300, 100, 30, 10, 3, 1, 0.3, 0.1 and 0.03 nM in the case of IC50 evaluation, and then reacted at room temperature for 15 minutes. 5 ul of substrate and 5 ul of ATP prepared so as to have a final concentration of 10 μM were added to the plate on which reactions were completed, and then allowed to react at 30° C. for 1 hour. All wells of the plate were treated with 25 ul of ADP-Glo™ reagent and allowed to react at 30° C. for 40 minutes. After that, all wells were treated with 50 ul of kinase detection buffer, and then reacted at 30° C. for 30 minutes under light shielding conditions. For the plate on which all reactions were completed, luminescence was measured and the results were calculated. Evaluation was carried out in duplicate, and negative control and positive control were calculated depending on whether or not the enzyme was added without treatment of the compound. The IC50 was calculated based on the calculated values.

T2 sequence (Q06187 whole entry): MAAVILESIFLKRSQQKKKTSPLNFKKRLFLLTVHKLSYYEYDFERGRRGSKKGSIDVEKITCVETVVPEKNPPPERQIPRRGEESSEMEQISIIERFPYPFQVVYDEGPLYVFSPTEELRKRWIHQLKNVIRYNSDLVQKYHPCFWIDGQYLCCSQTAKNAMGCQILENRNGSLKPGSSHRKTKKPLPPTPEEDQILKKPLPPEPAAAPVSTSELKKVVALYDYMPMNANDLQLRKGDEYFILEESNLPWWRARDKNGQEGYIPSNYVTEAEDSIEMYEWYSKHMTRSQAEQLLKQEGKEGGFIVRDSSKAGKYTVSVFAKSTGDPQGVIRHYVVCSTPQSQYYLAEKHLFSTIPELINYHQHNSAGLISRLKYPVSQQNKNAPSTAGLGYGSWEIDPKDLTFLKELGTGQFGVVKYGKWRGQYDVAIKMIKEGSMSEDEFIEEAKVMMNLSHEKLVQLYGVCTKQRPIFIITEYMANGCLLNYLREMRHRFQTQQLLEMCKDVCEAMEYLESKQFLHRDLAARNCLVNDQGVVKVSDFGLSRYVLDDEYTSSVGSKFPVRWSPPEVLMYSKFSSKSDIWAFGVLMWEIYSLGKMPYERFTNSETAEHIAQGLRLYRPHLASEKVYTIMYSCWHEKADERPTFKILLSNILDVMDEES

Take `C=CC(=O)Nc1cccc(-c2cc(CN3CCN(CCOC)CC3)cc(Nc3ncc(C)s3)n2)c1` [Compound 49, N-(3-(4-((4-(2-methoxyethyl)piperazin-1-yl)methyl)-6-(5-methylthiazol-2-ylamino)pyridin-2-yl)phenyl)acrylamide]: the IC50 turned out to be 3.1 nM on ITK and 1.3 nM at BTK.

Take `C=CC(=O)Nc1cccc(-c2cc(CN3CCN(CC(F)(F)F)CC3)cc(Nc3ncc(C)s3)n2)c1` [Compound 50, N (3(6(5methylthiazol-2-ylamino)-4-((4-(2,2,2-trifluoroethyl)piperazin-1-yl)methyl)pyridin-2-yl)phenyl)acrylamide]: the IC50 on ITK was 5 nM; at BTK, 2.2 nM.

On to `C=CC(=O)Nc1cccc(-c2cc(CN3CCOCC3)cc(Nc3ncc(C(F)(F)F)s3)n2)c1` [Compound 51], for which the IC50 at ITK came out at 2.2 nM; on BTK, 5.2 nM.

In the case of `C=CC(=O)Nc1ccc(F)c(-c2cc(CN3CCOCC3)cc(Nc3ncc(C)s3)n2)c1` [Compound 52], the IC50 worked out at 2.2 nM at ITK and 1.9 nM at BTK.

For the compound `C=CC(=O)Nc1cccc(-c2cc(CN3CCN(CC)CC3)cc(Nc3ncc(C)s3)n2)c1` [Compound 53, N-(3-(4-((4-ethylpiperazin-1-yl)methyl)-6-(5-methylthiazol-2-yl)amino)pyridin-2-yl)phenylacrylamide], the IC50 on ITK was found to be 3.8 nM; on BTK, 2.3 nM.

Consider `C=CC(=O)Nc1cccc(-c2cc(CN3CCN(C(C)C)CC3)cc(Nc3ncc(C)s3)n2)c1` [Compound 54], for which the IC50 worked out at 2.9 nM on ITK and 1.9 nM at BTK.

For `C=CC(=O)Nc1cccc(-c2cc(CN3CCCN(C)CC3)cc(Nc3ncc(C)s3)n2)c1` [Compound 55, N-(3-(4-((4-methyl-1,4-diazepan-1-yl)methyl)-6-(5-methylthiazol-2-ylamino)pyridin-2-yl)phenyl)acrylamide], the IC50 at ITK was 13.4 nM; on BTK, 10.6 nM.

Regarding `C=CC(=O)Nc1cc(-c2cc(CN3CCOCC3)cc(Nc3ncc(C)s3)n2)ccc1F` [Compound 56, N-(2-fluoro-5-(6-((5-methylthiazol-2-yl)amino)-4-(morpholinomethyl)pyridin-2-yl)phenyl)acrylamide], the IC50 at ITK was determined as 4.2 nM; at BTK, 1.8 nM.

Take `C=CC(=O)Nc1cc(F)cc(-c2cc(CN3CCOCC3)cc(Nc3ncc(C)s3)n2)c1` [Compound 57, N-(3-fluoro-5-(6-((5-methylthiazol-2-yl)amino)-4-(morpholinomethyl)pyridin-2-yl)phenyl)acrylamide]: the IC50 at ITK was 23.2 nM; on BTK it was > 6.3 nM.

Regarding `C=CC(=O)Nc1cc(-c2cc(CN3CCOCC3)cc(Nc3ncc(C)s3)n2)ccc1C` [Compound 58], the figures for the IC50 at ITK and on BTK were 14.1 nM and 6.4 nM, respectively.

As for `C=CC(=O)Nc1ccc(C)c(-c2cc(CN3CCOCC3)cc(Nc3ncc(C)s3)n2)c1` [Compound 59, N-(4-methyl-3-(6-((5-methylthiazol-2-yl)amino)-4-(morpholinomethyl)pyridin-2-yl)phenyl)acrylamide], the results for the IC50 at ITK and at BTK were 18.1 nM and 8.3 nM, respectively.

`C=CC(=O)Nc1cccc(-c2cc(CN3CCN(C(C)=O)CC3)cc(Nc3ncc(C)s3)n2)c1` [Compound 60, N-(3-(4-((4-acetylpiperazin-1-yl)methyl)-6-(5-methylthiazol-2-ylamino)pyridin-2-yl)phenyl)acrylamide]: the IC50 at ITK came to 2.2 nM; on BTK, 1.9 nM.

As to `C=CC(=O)Nc1cccc(-c2cc(CN3CCN(C(=O)CC)CC3)cc(Nc3ncc(C)s3)n2)c1` [Compound 61, N (3(6(5methylthiazol-2-ylamino)-4-((4-propionylpiperazin-1-yl)methyl)pyridin-2-yl)phenyl)acrylamide], the IC50 at ITK was determined as 13.5 nM; on BTK, 9.5 nM.

Take `C=CC(=O)Nc1cccc(-c2cc(CN3CCN(C(=O)C4CC4)CC3)cc(Nc3ncc(C)s3)n2)c1` [Compound 63, N (3(4((4-(cyclopropanecarbonyl)piperazin-1-yl)methyl)-6-(5-methylthiazol-2-ylamino)pyridin-2-yl)phenyl)acrylamide]: the IC50 on ITK turned out to be 9 nM; on BTK, 6.7 nM.

Regarding `C=CC(=O)Nc1ccc(Cl)c(-c2cc(CN3CCOCC3)cc(Nc3ncc(C)s3)n2)c1` [Compound 64], the results for the IC50 on ITK and on BTK were 15.7 nM and 18.1 nM, respectively.

Regarding `C=CC(=O)N(C)c1cccc(-c2cc(CN3CCOCC3)cc(Nc3ncc(C)s3)n2)c1` [Compound 65], the values for the IC50 at ITK and at BTK were 2.1 nM and 1.9 nM, respectively.

In the case of `C=CC(=O)N(CC)c1cccc(-c2cc(CN3CCOCC3)cc(Nc3ncc(C)s3)n2)c1` [Compound 66, N-ethyl-N-(3-(6-(5-methylthiazol-2-ylamino)-4-(morpholinomethyl)pyridin-2-yl)phenyl)acrylamide], the IC50 is 3.7 nM at ITK and 1.3 nM at BTK.

With `C=CC(=O)Nc1cccc(-c2cc(CN3CCOCC3)cc(NC(=O)NC)n2)c1` [Compound 67, N-(3-(6-(3-methylureido)-4-(morpholinomethyl)pyridin-2-yl)phenyl)acrylamide], the IC50 on ITK is > 200 nM; on BTK, 64.1 nM.

In the case of `C=CC(=O)Nc1cccc(-c2cc(CN3CCOCC3)cc(NC(=O)CC)n2)c1` [Compound 68, N-(3-(4-(morpholinomethyl)-6-propionamidopyridin-2-yl)phenyl)acrylamide], the IC50 on ITK was > 1000 nM; on BTK it was > 400 nM.

For `C=CC(=O)Nc1cccc(-c2cc(Cc3cccnc3)cc(Nc3cc(C)[nH]n3)n2)c1` [Compound 72, N-(3-(6-((5-methyl-1H-pyrazol-3-yl)amino)-4-(pyridin-3-ylmethyl)pyridin-2-yl)phenyl)acrylamide], the 50% inhibitory concentration (IC50) on ITK turned out to be 8 nM; at BTK, 3.3 nM.

Consider `C=CC(=O)Nc1cccc(-c2cc(Cc3cccnc3)cc(Nc3ncc(C)s3)n2)c1` [Compound 73, N-(3-(6-((5-methylthiazol-2-yl)amino)-4-(pyridin-3-ylmethyl)pyridin-2-yl)phenyl)acrylamide], for which the figures for the IC50 at ITK and on BTK were 2.3 nM and 2.5 nM, respectively.
